Laboratory results as given in patent publication US20260176289A1, “SMALL MOLECULE INHIBITORS OF KRAS PROTEINS” (Merck Sharp & Dohme LLC, priority 2022, published 2026).
pIC50: −log10 of the molar value.

Assays:
Assay type in all cases: biochemical
[1] = molecular target: T1, KRAS G12D (amino acids 1-169) (Homo sapiens, UniProt P01116, G12D); assay: SOS-catalyzed nucleotide exchange assay (Procedure B, BODIPY FL GDP displacement), KRAS G12D; settings: read-out: KRAS G12D GNE IC50
T1 construct: made in house; host or cells: E. coli
Method: (§1) Procedure for SOS-Catalyzed Nucleotide Exchange Assay for KRAS-G12C/D/V/WT (Procedure B)
(§2) Recombinant KRAS G12C (amino acids 1-169, SEQ ID NO:9), KRAS G12D (amino acids 1-169, SEQ ID NO: 10), KRAS G12V (amino acids 1-169, SEQ ID NO: 11), KRAS WT (amino acids 1-169, SEQ ID NO:12) and SOS1 (amino acids 564-1049, SEQ ID NO: 13) proteins were expressed in E. coli and purified by affinity chromatography. To prepare each BODIPY™ FL GDP-bound KRAS protein, 50 μM KRAS proteins were incubated with 0.5 mM BODIPY™ FL GDP (Invitrogen, G22360) in a loading buffer (20 mM Tris-HCl pH 7.5, 50 mM NaCl, 1 mM DTT and 2.5 mM EDTA) for 1 hour on ice. After the incubation, MgCl2 was added to a final concentration of 10 mM, followed by an incubation at room temperature for 30 minutes. The mixtures were allowed to pass through a NAP-5 column to remove free nucleotides and purified BODIPY™ FL GDP-bound KRAS G12C, G12D, G12V and WT proteins were used for compound evaluation.
(§3) The inhibitory activity of compounds on recombinant KRAS is measured by the displacement of the bound BODIPY™ GDP. Specifically, 2.5 nM of each BODIPY™ FL GDP-bound KRAS complex was incubated with various concentrations of compound in a reaction buffer (20 mM Tris-HCl pH 7.5, 100 mM NaCl, 1 mM MgCl2, 2 mM DTT, 0.1% Tween 20) at 25° C. for 1 hour. After the incubation, recombinant SOS1 and GMPPNP (Jena Bioscience GmbH, NU-401) were added and incubated at room temperature for 30 minutes to proceed SOS1-dependent GDP-GTP exchange reaction on KRAS. Displacement of BODIPY™ FL GDP by Guanosine-5′-[(β,γ)-imido]triphosphate, Tetralithium salt (GMPPNP) was measured by calculating the ratio of fluorescence intensities of BODIPY™ FL before and after the exchange reaction. Percent Inhibition was calculated by setting the fluorescence ratio from the reaction without test compound (DMSO control) and the fluorescence ratio from the reaction without SOS1 and GMPPNP as 0% and 100% inhibition, respectively. Dose response curves were analyzed using a 4-parameter logistic model to calculate IC50 values.

[2] = molecular target: T2, KRAS WT (amino acids 1-169) (Homo sapiens, UniProt P01116); assay: SOS-catalyzed nucleotide exchange assay (Procedure B, BODIPY FL GDP displacement), KRAS WT; settings: read-out: KRAS WT GNE IC50
T2 construct: made in house; host or cells: E. coli
Method: as §1, §2, §3

[3] = molecular target: T3, KRAS G12C (amino acids 1-169) (Homo sapiens, UniProt P01116, G12C); assay: SOS-catalyzed nucleotide exchange assay (Procedure B, BODIPY FL GDP displacement), KRAS G12C; settings: read-out: KRAS G12C GNE IC50
T3 construct: made in house; host or cells: E. coli
Method: as §1, §2, §3

[4] = molecular target: T4, KRAS G12V (amino acids 1-169) (Homo sapiens, UniProt P01116, G12V); assay: SOS-catalyzed nucleotide exchange assay (Procedure B, BODIPY FL GDP displacement), KRAS G12V; settings: read-out: KRAS G12V GNE IC50
T4 construct: made in house; host or cells: E. coli
Method: as §1, §2, §3

T4 sequence (P01116 with tags, fused parts or gaps isoform P01116-2 G12V): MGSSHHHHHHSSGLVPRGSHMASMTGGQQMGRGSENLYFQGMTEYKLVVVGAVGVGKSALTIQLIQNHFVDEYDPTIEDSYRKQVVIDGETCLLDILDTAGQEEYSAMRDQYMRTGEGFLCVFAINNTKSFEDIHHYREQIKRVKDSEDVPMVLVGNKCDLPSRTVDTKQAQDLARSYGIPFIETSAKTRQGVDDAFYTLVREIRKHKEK
T3 sequence (P01116 with tags, fused parts or gaps isoform P01116-2 G12C): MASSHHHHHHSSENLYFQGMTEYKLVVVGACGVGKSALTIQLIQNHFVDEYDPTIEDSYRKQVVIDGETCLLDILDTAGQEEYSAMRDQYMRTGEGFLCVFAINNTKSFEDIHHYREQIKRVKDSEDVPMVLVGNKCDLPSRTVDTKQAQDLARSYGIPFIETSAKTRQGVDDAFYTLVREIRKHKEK
T1 sequence (P01116 with tags, fused parts or gaps isoform P01116-2 G12D): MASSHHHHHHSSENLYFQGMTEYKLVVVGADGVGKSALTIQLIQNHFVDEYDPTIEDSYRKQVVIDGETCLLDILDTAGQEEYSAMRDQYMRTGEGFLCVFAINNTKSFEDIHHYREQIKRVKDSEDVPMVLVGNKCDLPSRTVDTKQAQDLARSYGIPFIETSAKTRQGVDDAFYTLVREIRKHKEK
T2 sequence (P01116 with tags, fused parts or gaps isoform P01116-2): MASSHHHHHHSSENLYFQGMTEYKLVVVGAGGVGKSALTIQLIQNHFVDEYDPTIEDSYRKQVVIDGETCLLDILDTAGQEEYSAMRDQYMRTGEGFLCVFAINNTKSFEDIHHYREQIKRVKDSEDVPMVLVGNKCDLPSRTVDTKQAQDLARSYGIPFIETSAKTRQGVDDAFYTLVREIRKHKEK

C[C@H]1CN2C[C@H](F)C[C@@]2(COc2nc(N3CCOC[C@@](C)(O)C3)c3c(n2)sc2c(-c4c(C5CC5)c(Cl)cc5[nH]ncc45)nccc23)C1 [Ex-226, (6S)-4-(8-(6-chloro-5-cyclopropyl-1H-indazol-4-yl)-2-(((2R,6R,7aR)-2-fluoro-6-methyl-tetrahydro-1H-pyrrolizin-7a(5H)-yl)methoxy)pyrido [4′,3′:4,5]thieno[2,3-d]pyrimidin-4-yl)-6-methyl-1,4-oxaze-pan-6-ol]
pIC50 [1]: 7.51
pIC50 [2]: 7.29
pIC50 [3]: 7.32
pIC50 [4]: 7.38

C[C@@]1(O)COCCN(c2nc(OC[C@@]34CCCN3C[C@H](F)C4)nc3sc4c(-c5c6c(cc7[nH]ncc57)CCC6)nccc4c23)C1 [Ex-111, (6S)-4-(2-(((2R,7aS)-2-fluorotetrahydro-1H-pyrrolizin-7a(5H)-yl)methoxy)-8-(1,5,6,7-tetrahydrocyclopenta[f]in-dazol-4-yl)pyrido[4′,3′:4,5]thieno [2,3-d]pyrimidin-4-yl)-6-methyl-1,4-oxazepan-6-ol]
pIC50 [1]: 7.73
pIC50 [2]: 7.47
pIC50 [3]: 7.35
pIC50 [4]: 7.42

CC1c2c(cc3[nH]ncc3c2-c2nccc3c2sc2nc(OC[C@@]45CCCN4C[C@H](F)C5)nc(N4CCOC[C@@](C)(O)C4)c23)CC1(F)F (single isomer, unassigned) [Ex-107]
pIC50 [1]: 8.42
pIC50 [2]: 8.21
pIC50 [3]: 7.70
pIC50 [4]: 8.02

C[C@@]1(O)COCCN(c2nc(OC[C@@]34CCCN3C[C@H](F)C4)nc3sc4c(-c5c6c(cc7[nH]ncc57)CCC6C5CC5)nccc4c23)C1 (stereo partly drawn) [Ex-104, (6S)-4-(8-(5-cyclopropyl-1,5,6,7-tetrahydrocyclopenta[f]in-dazol-4-yl)-2-(((2R,7aS)-2-fluorotetrahydro-1H-pyrrolizin-7a(5H)-yl)methoxy)pyrido[4′,3′:4,5]thieno[2,3-d]pyrimidin-4-yl)-6-methyl-1,4-oxazepan-6-ol]
pIC50 [1]: 7.36
pIC50 [2]: 7.15
pIC50 [3]: 6.77
pIC50 [4]: 7.22

CC1c2c(cc3[nH]ncc3c2-c2nccc3c2sc2nc(OC[C@@]45CCCN4C[C@H](F)C5)nc(N4CCOC[C@@](C)(O)C4)c23)C(C)(C)C1(F)F (stereo partly drawn) [Ex-100, (6S)-4-(8-(6,6-difluoro-5,7,7-trimethyl-1,5,6,7-tetrahydrocyclopenta[f]in-dazol-4-yl)-2-(((2R,7aS)-2-fluorotetrahydro-1H-pyrrolizin-7a(5H)-yl)methoxy)pyrido[4′,3′: 4,5]thieno[2,3-d]pyrimidin-4-yl)-6-methyl-1,4-oxazepan-6-ol]
pIC50 [1]: 6.66
pIC50 [2]: 6.45
pIC50 [3]: 6.18
pIC50 [4]: 6.29

C[C@@]1(O)COCCN(c2nc(OC[C@@]34CCCN3C[C@H](F)C4)nc3sc4c(-c5c(-c6cnco6)c(Cl)cc6[nH]ncc56)nccc4c23)C1 [Ex-75, (6S)-4-(8-(6-chloro-5-(oxazol-5-yl)-1H-indazol-4-yl)-2-(((2R,7aS)-2-fluorotetrahydro-1H-pyrrolizin-7a(5H)-yl)methoxy)pyrido[4′,3′:4,5]thi-eno[2,3-d]pyrimidin-4-yl)-6-methyl-1,4-oxazepan-6-ol]
pIC50 [1]: 7.71
pIC50 [2]: 7.22
pIC50 [3]: 7.25
pIC50 [4]: 6.93

CC1CC(F)(F)c2cc3[nH]ncc3c(-c3nccc4c3sc3nc(OC[C@@]56CCCN5C[C@H](F)C6)nc(N5CCOC[C@@](C)(O)C5)c34)c21 (stereo partly drawn) [Ex-101, (6S)-4-(8-(7,7-difluoro-5-methy1-1,5,6,7-tetrahydrocyclopenta[f]in-dazol-4-yl)-2-(((2R,7aS)-2-fluorotetrahydro-1H-pyrrolizin-7a(5H)-yl)methoxy)pyrido[4′,3′:4,5]thi-eno[2,3-d]pyrimidin-4-yl)-6-methyl-1,4-oxazepan-6-ol]
pIC50 [1]: 8.70
pIC50 [2]: 8.40
pIC50 [3]: 8.19
pIC50 [4]: 8.29

C[C@@]1(O)COCCN(c2nc(OC[C@@]34CCCN3C[C@H](F)C4)nc3sc4c(-c5c6c(cc7[nH]ncc57)CCC6=O)nccc4c23)C1 [Ex-89, 4-(2-(((2R,7aS)-2-fluorotetrahydro-1H-pyrrolizin-7a(5H)-yl)methoxy)-4-((S)-6-hydroxy-6-methyl-1,4-oxazepan-4-yl)pyrido[4′,3′:4,5]thieno [2,3-d]pyrimidin-8-yl)-6,7-dihydrocyclopenta[f]inda-zol-5(1H)-one]
pIC50 [1]: 7.10
pIC50 [2]: 6.77
pIC50 [3]: 6.86
pIC50 [4]: 6.61

CC(=O)N1CC(Nc2nc(OC[C@@]34CCCN3C[C@H](F)C4)nc3sc4c(-c5c(C(F)(F)F)c(C)cc6[nH]ncc56)nccc4c23)C1 [Ex-190, 1-(3-((2-(((2R,7aS)-2-fluorotetrahydro-1H-pyr-rolizin-7a(5H)-yl)meth-oxy)-8-(6-methyl-5-(tri-fluoromethyl)-1H-indazol-4-yl)pyrido[4′,3′:4,5]thieno[2,3-d]pyrimidin-4-yl)amino)azetidin-1-yl)-ethan-1-one]
pIC50 [1]: 6.36
pIC50 [2]: 6.36
pIC50 [3]: 6.47
pIC50 [4]: 6.31

C#Cc1cccc2cccc(-c3nncc4c3sc3nc(OC[C@@]56CCCN5C[C@H](F)C6)nc(N5CCOC[C@@](C)(O)C5)c34)c12 [Ex-285]
pIC50 [1]: 6.49
pIC50 [2]: 6.05
pIC50 [3]: 6.19
pIC50 [4]: 6.00

Cc1cc2[nH]ncc2c(-c2nccn3c2c(C)c2nc(OC[C@@]45CCCN4C[C@H](F)C5)nc(N4CCOC[C@@](C)(O)C4)c23)c1C1CC1 [Ex-298, (S)-4-(9-(5-cyclopropyl-6-methyl-1H-indazol-4-yl)-2-(((2R,7aS)-2-fluorotetrahydro-1H-pyrrolizin-7a(5H)-yl)methoxy)-10-methylpyrazi-no[1′,2′:1,5]pyrrolo[3,2-d]pyrimidin-4-yl)-6-methyl-1,4-oxazepan-6-ol]
pIC50 [1]: 7.30
pIC50 [2]: 6.95
pIC50 [3]: 7.07
pIC50 [4]: 6.80

Cc1cc2[nH]ncc2c(-c2nccc3c2sc2nc(OC[C@@]45CCCN4C[C@H](F)C5)nc(N4CCOCC(C)C4)c23)c1C(F)(F)F (stereo partly drawn) [Ex-182, 4-(2-(((2R,7aS)-2-fluoro-tetrahydro-1H-pyrrolizin-7a(5H)-yl)methoxy)-8-(6-methyl-5-(trifluorometh-yl)-1H-indazol-4-yl)pyrido [4′,3′:4,5]thieno[2,3-d]pyr-imidin-4-yl)-6-methyl-1,4-oxazepane]
pIC50 [1]: 5.44
pIC50 [2]: 5.66
pIC50 [3]: 5.90
pIC50 [4]: 5.50

C#Cc1c(Cl)cc2[nH]ncc2c1-c1nccn2c1c(F)c1nc(OC[C@@]34CCCN3C[C@H](F)C4)nc(N3CCOC[C@@](C)(O)C3)c12 [Ex-304, (S)-4-(9-(6-chloro-5-ethynyl-1H-indazol-4-yl)-10-fluoro-2-(((2R,7aS)-2-fluorotetrahydro-1H-pyrrolizin-7a(5H)-yl)methoxy)pyrazino[1′,2′:1,5]pyrrolo[3,2-d]pyrimidin-4-yl)-6-methyl-1,4-oxazepan-6-ol]
pIC50 [1]: 7.88
pIC50 [2]: 7.47
pIC50 [3]: 7.60
pIC50 [4]: 7.47

CC1(F)c2c(cc3[nH]ncc3c2-c2nccc3c2sc2nc(OC[C@@]45CCCN4C[C@H](F)C5)nc(N4CCOC[C@@](C)(O)C4)c23)CC1(F)F (single isomer, unassigned) [Ex-99]
pIC50 [1]: 7.56
pIC50 [2]: 7.25
pIC50 [3]: 7.28
pIC50 [4]: 7.18

C[C@@]1(O)COCCN(c2nc(OC[C@@]34CCCN3C[C@H](F)C4)nc3sc4c(-c5c(-c6ccco6)c(Cl)cc6[nH]ncc56)nncc4c23)C1 [Ex-282]
pIC50 [1]: 8.37
pIC50 [2]: 7.87
pIC50 [3]: 8.23
pIC50 [4]: 7.90

Cc1cc2[nH]ncc2c(-c2nccc3c2sc2nc(OC[C@@]45CCCN4C[C@H](F)C5)nc(N4CCOC[C@@](C)(O)C4)c23)c1C(C)C [Ex-137, (6S)-4-(2-(((2R, 7aS)-2-fluorotetra-hydro-1H-pyrrol-izin-7a(5H)-yl)meth-oxy)-8-(5-isopropyl-6-methyl-1H-ind-azol-4-yl)pyrido [4′,3′:4,5]thieno[2,3-d]pyrimidin-4-yl)-6-methyl-1,4-oxaze-pan-6-ol]
pIC50 [1]: 7.49
pIC50 [2]: 7.24
pIC50 [3]: 7.40
pIC50 [4]: 7.18
